{"source": "patent US10874685B2", "about": "“Pancreatic cancer therapy and diagnosis” (Deutsches Krebsforschungszentrum Stiftung des Öffentlichen …, priority 2014, dated 2020)", "assay_type_in_all_cases": "cell-based, human", "key": {"[1]": {"test_system": "SREBP1, SREBP2, INSIG1, HMGCR, LDLR mRNA", "assay": "qRT-PCR of cholesterol biosynthesis genes in PDAC cell lines", "details": "qRT-PCR 18 hours post-treatment; relative to actin", "text": "Measurement of 2-deoxy-D-glucose uptake shown on the y-axis relative to control by PDAC cell lines (MIAPaCa2, left; PANC-1, middle; AsPC1, right) treated with DMSO (C), pimozide (P) or haloperidol (H) (FIG. 10A). Abundance of free cholesterol, as measured by staining with filipin, after treatment with haloperidol (H) or pimozide (P) in PDAC cell lines (MIAPaCa2, left; PANC-1, middle; AsPC1, right) (FIG. 10B top). Representative micrographs of filipin-labelled cholesterol. PDAC (MIAPaCa2, top; PANC-1, middle; AsPC1, bottom) cells were seeded for 24 hours and treated with 10 μM haloperidol (H) or pimozide (P) or DMSO for 18 hours (FIG. 10B bottom). Red-fluorescence represents propidium iodide (PI)-stained nuclei and blue-fluorescence represents filipin-stained cholesterol. mRNA levels of genes relative to R-actin shown on the y-axis involved in cholesterol biosynthesis (from left to right: SREBP1, SREBP2, INSIG1, HMGCR, LDLR) measured by qRT-PCR 18 hours post-treatment with DMSO (C), haloperidol (H) or pimozide (P) in three PDAC cell lines (MIAPaCa2, top; PANC-1, middle; AsPC1, bottom) (FIG. 10C).\nFor mice xenograft tissue samples and cultured cells, the miRNeasy kit (Qiagen, Valencia, Calif.) was used to extract total RNA. […] Quantification values were calculated according to a standard curve method created from a dilution series. […]"}, "PANC-1 cells": {"test_system": "PANC-1 cells", "assay": "Wound healing (scratching) assay for cell migration", "details": "PANC-1, increasing concentrations, 10 h", "protocol": "PANC-1 cells were plated in the chamber were already attached in 12 well plate and allowed to grow for 24 h. Then, a wound was made in the confluent monolayer by removing the chamber. Cells were exposed to increasing concentration of Pimozide (FIG. 6A) or L741 (FIG. 6B) and vehicle for 10 h. Wound gap closure was measured for each drug concentration by comparing the gap at time 0 h to the one at the time 10 h when the gap closed in negative control and normalized to untreated condition.\nPANC-1 cells were seeded into the 35 mm-dish culture-silicon Insert frames from Ibidi where already attached to the 6 well culture plate. When 96-98% confluency was achieved, the insert frames were removed using sterile forceps to reach cell free gap. To create a reference point for subsequent measurements, three different part of the gap was marked on the underside of the plastic. Floating cells and cell debris were washed using PBS, relative culture medium was added to each wells and migration distance was photographed using a Zeiss Axiovert 24 light microscope at zero time in the marked areas. Afterward, the wells were treated by addition of DMSO as control and different increasing concentration of Pim and L741. Plates were then placed into the incubator and the cells were allowed to migrate until the time when the gap for the […] closed (t time). Images were taken from the marked areas again. This assay was performed employing various concentrations of drugs at which maximum 5% viability inhibition was observed after 10 h treatment."}, "[2]": {"test_system": "pancreatic cancer cell lines (PANC-1, CFPAC-1, CAPAN-1, MIAPaCa-2, BXPC-3)", "assay": "Sulforhodamine B (SRB) cytotoxicity assay on pancreatic cancer cell lines", "details": "increasing concentration, 72 h", "protocol": "PANC-1, CFPAC-1, CAPAN-1, MIAPaCa-2, BXPC-3 and fibroblast cells were seeded for 24 h and were exposed to increasing concentration of Pimozide and vehicle for 72 h (FIG. 3A). The same procedure was followed for treatment of cancer cell lines with L741 (FIG. 3B). Cell viability was characterized using a SRB assay. Values are the mean+/−SD of six independent experiments.\nFive pancreatic ductal cancer cell lines with various degree of differentiation were obtained from American Type Culture Collection (Rockville, USA) and Normal Human Dermal Fibroblasts (NHDF) obtained from PromoCell. BXPC-3 (moderately differentiated) as well as poorly differentiated human pancreatic cancer cell lines, PANC-1 and MIAPaCa-2, have been established from primary tumor. AsPC-1, CAPAN-1 and CFPAC-1 which represent well differentiated cell lines was isolated from ascites and liver metastasis of pancreas adenocarcinoma. All cell lines contain mutation in P53 whereas K-ras mutation reported in all with the exception of BxPc3. BRCA2 mutation just reported in CAPAN-1 cells.\nSulforhodamine B sodium salt (sigma) was used to assess cell viability and IC50 determination of pancreatic cancer cells. […] Cell viability was specified by using plate reader (TECAN) with measuring of absorbance at 570 and 650 nm (background) in treated or untreated 96 well plate."}, "[3]": {"test_system": "PANC-1, MIAPaCa-2 and AsPC-1 cell lines", "assay": "PDAC cell line growth curves under combination therapy", "details": "over time", "text": "FIGS. 11A and 11B show PDAC cell line growth curves following combination therapy with DRD2 antagonists, 2-deoxy-D-glucose, and atorvastatin. Percentage cell growth shown on the y-axis following treatment with control (blue line), pimozide (Pim, gray line), atorvastatin and 2-deoxy-D-glucose (ATR+2-DG, red line) and combination of Pim and ATR+2-DG (green line) over time in PANC-1 (top), MIAPaCa-2 (middle) and AsPC-1 (bottom) cell lines (FIG. 11A). Haloperidol (Hal, gray line) is used as the DRD2 antagonist for use alone or in combination with ATR+2-DG as described in A (FIG. 11B). Dosage are indicated for each cell line.\nPDAC cell proliferation was measured during pharmacological inhibition of DRD2 alone and in combination with blockade of glycolysis and cholesterol synthesis. To suppress glycolysis, 2-DG, a glucose analog which is a competitor inhibitor of glucose metabolism, was used. To inhibit cholesterol synthesis, atorvastatin (ATR), a competitive inhibitor of 3-hydroxy-3-methylglutaryl-coenzyme A (HMG-CoA) reductase in the cholesterol biosynthesis pathway was used."}}, "note": "“Also recorded” adds a separate entry of the source.", "data": [{"smiles": "O=c1[nH]c2ccccc2n1C1CCN(CCCC(c2ccc(F)cc2)c2ccc(F)cc2)CC1", "note": "[pimozide]", "values": [{"measurement": "expression of genes involved in lipogenesis / cholesterol biosynthesis", "setting": "[1]", "result": "inducing expression of genes involved in lipogenesis"}, {"measurement": "tumor cell migration (wound gap closure)", "setting": "PANC-1 cells", "result": "tumor cell migration was affected"}, {"measurement": "tumor cell migration (wound gap closure)", "setting": "PANC-1 cells; listed as Pimozide", "result": "dose dependent inhibitory effect"}, {"measurement": "cell viability of pancreatic cancer cell lines", "setting": "[2]", "result": "Potent toxicity effect; also recorded: dose dependent toxicity effect"}, {"measurement": "cell growth", "setting": "[3]", "result": "reduced cell growth"}]}]}
